Measurements taken from PubChem BioAssay AID246 (DTP/NCI, 2004).
Several values for one entry are separate records, joined by “and”; a condition that tells them apart may be missing. Equal values may be shown once. Toxic doses and inconclusive results are not listed.

System: BDF1 mice, P1081 chloroleukemia ip, survival T/C
Assay: NCI In Vivo Anticancer Drug Screen. Data for tumor model P1081 Chloroleukemia (intraperitoneal) in B6D2F1 (BDF1) mice
Details: endpoint: mean survival time, higher = longer survival
Method: The antitumor activity of compounds was measured in mice bearing transplantable tumors. Survival or tumor size were measured and the results are expressed as the measurement made in the treated group (T) divided by the measurement made in the vehicle treated control group (C). The tumor model used in this assay is P1081 Chloroleukemia (intraperitoneal) in B6D2F1 (BDF1) mice

[1] = dose: 25.0 mg/kg/injection, schedule: Q01DX010 (ip), vehicle: saline
[2] = dose: 50.0 mg/kg/injection, schedule: Q01DX010 (ip), vehicle: saline
[3] = dose: 100.0 mg/kg/injection, schedule: Q01DX010 (ip), vehicle: saline
[4] = dose: 25.0 mg/kg/injection, schedule: Q01DX Z (ip), vehicle: carboxymethylcellulose (CMC)
[5] = dose: 50.0 mg/kg/injection, schedule: Q01DX Z (ip), vehicle: carboxymethylcellulose (CMC)

CC(=O)O[C@]1(C(C)=O)CC[C@H]2[C@@H]3C[C@H](C)C4=CC(=O)C=C[C@]4(C)[C@@]3(F)[C@@H](O)C[C@@]21C
T/C (dose: 2.5 mg/kg/injection, schedule: Q01DX Z (sc), vehicle: steriod suspending solution): 100 % of control
T/C (dose: 5.0 mg/kg/injection, schedule: Q01DX Z (sc), vehicle: steriod suspending solution): 108 % of control
T/C (dose: 10.0 mg/kg/injection, schedule: Q01DX Z (sc), vehicle: steriod suspending solution): 107 % of control
T/C (dose: 12.5 mg/kg/injection, schedule: Q01DX010 (sc), vehicle: steriod suspending solution): 105 % of control and 100 % of control
T/C (dose: 20.0 mg/kg/injection, schedule: Q01DX Z (sc), vehicle: steriod suspending solution): 108 % of control
T/C (dose: 25.0 mg/kg/injection, schedule: Q01DX010 (sc), vehicle: steriod suspending solution): 100 % of control
T/C (dose: 40.0 mg/kg/injection, schedule: Q01DX Z (sc), vehicle: steriod suspending solution): 116 % of control
T/C (dose: 50.0 mg/kg/injection, schedule: Q01DX010 (sc), vehicle: steriod suspending solution): 90 % of control and 95 % of control
T/C (dose: 100.0 mg/kg/injection, schedule: Q01DX010 (sc), vehicle: steriod suspending solution): 90 % of control and 100 % of control
T/C (dose: 160.0 mg/kg/injection, schedule: Q01DX Z (sc), vehicle: steriod suspending solution): 105 % of control
T/C (dose: 320.0 mg/kg/injection, schedule: Q01DX Z (sc), vehicle: steriod suspending solution): 93 % of control

CN(Cc1cnc2nc(N)nc(N)c2n1)c1ccc(C(=O)N[C@@H](CCC(=O)O)C(=O)O)cc1
T/C (dose: 0.03 mg/kg/injection, schedule: Q01DX Z (ip), vehicle: other): 160 % of control
T/C (dose: 0.06 mg/kg/injection, schedule: Q01DX Z (ip), vehicle: other): 115 % of control
T/C (dose: 0.07 mg/kg/injection, schedule: Q01DX Z (ip), vehicle: other): 113 % of control
T/C (dose: 0.15 mg/kg/injection, schedule: Q01DX Z (ip), vehicle: other): 117 % of control and 122 % of control
T/C (dose: 0.19 mg/kg/injection, schedule: Q01DX010 (ip), vehicle: other): 110 % of control and 120 % of control and 121 % of control
T/C (dose: 0.24 mg/kg/injection, schedule: Q01DX Z (ip), vehicle: other): 189 % of control
T/C (dose: 0.31 mg/kg/injection, schedule: Q01DX Z (ip), vehicle: other): 111 % of control and 117 % of control
T/C (dose: 0.38 mg/kg/injection, schedule: Q01DX010 (ip), vehicle: other): 123 % of control
T/C (dose: 0.47 mg/kg/injection, schedule: Q01DX Z (ip), vehicle: other): 226 % of control
T/C (dose: 0.62 mg/kg/injection, schedule: Q01DX Z (ip), vehicle: other): 110 % of control and 113 % of control
T/C (dose: 0.75 mg/kg/injection, schedule: Q01DX010 (ip), vehicle: other): 150 % of control and 160 % of control and 170 % of control
T/C (dose: 0.94 mg/kg/injection, schedule: Q01DX Z (ip), vehicle: other): 92 % of control
T/C (dose: 1.5 mg/kg/injection, schedule: Q01DX010 (ip), vehicle: other): 187 % of control and 207 % of control and 210 % of control
T/C (dose: 1.88 mg/kg/injection, schedule: Q01DX Z (ip), vehicle: other): 98 % of control
T/C (dose: 3.0 mg/kg/injection, schedule: Q01DX010 (ip), vehicle: other): 106 % of control and 108 % of control and 105 % of control

COc1cc2c(c(OC)c1OC)-c1ccc(OC)c(=O)cc1[C@@H](NC(C)=O)CC2
T/C (dose: 0.08 mg/kg/injection, schedule: Q01DX Z (ip), vehicle: saline): 112 % of control
T/C (dose: 0.16 mg/kg/injection, schedule: Q01DX Z (ip), vehicle: saline): 114 % of control
T/C (dose: 0.6 mg/kg/injection, schedule: Q01DX Z (ip), vehicle: saline): 151 % of control
T/C (dose: 0.63 mg/kg/injection, schedule: Q01DX Z (ip), vehicle: saline): 177 % of control

CS(=O)(=O)OCCCCOS(C)(=O)=O
T/C (dose: 0.78 mg/kg/injection, schedule: Q01DX Z (ip), vehicle: methylcellulose (MC)): 89 % of control
T/C (dose: 6.25 mg/kg/injection, schedule: Q01DX010 (ip), vehicle: saline): 110 % of control
T/C (dose: 12.5 mg/kg/injection, schedule: Q01DX010 (ip), vehicle: saline): 86 % of control and 100 % of control
T/C [1]: 86 % of control and 100 % of control
T/C (dose: 25.0 mg/kg/injection, schedule: Q01DX Z (ip), vehicle: methylcellulose (MC)): 95 % of control
T/C [2]: 90 % of control and 100 % of control
T/C (dose: 50.0 mg/kg/injection, schedule: Q01DX Z (ip), vehicle: methylcellulose (MC)): 92 % of control

S=P(N1CCOCC1)(N1CC1)N1CC1
T/C (dose: 2.5 mg/kg/injection, schedule: Q01DX010 (ip), vehicle: saline): 116 % of control and 100 % of control
T/C (dose: 5.0 mg/kg/injection, schedule: Q01DX010 (ip), vehicle: saline): 105 % of control and 100 % of control
T/C (dose: 6.25 mg/kg/injection, schedule: Q01DX Z (ip), vehicle: carboxymethylcellulose (CMC)): 93 % of control
T/C (dose: 10.0 mg/kg/injection, schedule: Q01DX010 (ip), vehicle: saline): 110 % of control and 122 % of control
T/C (dose: 20.0 mg/kg/injection, schedule: Q01DX010 (ip), vehicle: saline): 105 % of control

Cn1cc(NC(=O)c2cc(NC(=O)CN=C(N)N)cn2C)cc1C(=O)NCCC(=N)N
T/C (dose: 6.3 mg/kg/injection, schedule: Q01DX Z (ip), vehicle: saline): 102 % of control
T/C (dose: 12.5 mg/kg/injection, schedule: Q01DX Z (ip), vehicle: saline): 100 % of control
T/C (dose: 25.0 mg/kg/injection, schedule: Q01DX Z (ip), vehicle: saline): 92 % of control

COc1cc2c(cc1I)-c1c(cc(OC)c(OC)c1OC)CC[C@@H]2NC(C)=O
T/C (dose: 45.0 mg/kg/injection, schedule: Q01DX010 (ip), vehicle: saline): 120 % of control
T/C (dose: 67.0 mg/kg/injection, schedule: Q01DX010 (ip), vehicle: saline): 115 % of control
T/C [3]: 115 % of control
T/C (dose: 150.0 mg/kg/injection, schedule: Q01DX010 (ip), vehicle: saline): 111 % of control and 115 % of control
T/C (dose: 225.0 mg/kg/injection, schedule: Q01DX010 (ip), vehicle: saline): 100 % of control

CN(C)/N=N/c1nc[nH]c1C(N)=O
T/C [1]: 120 % of control
T/C [2]: 120 % of control
T/C [3]: 160 % of control and 177 % of control
T/C (dose: 200.0 mg/kg/injection, schedule: Q01DX010 (ip), vehicle: saline): 122 % of control

CCC(=O)O[C@H]1CC[C@H]2[C@@H]3CCC4=CC(=O)CC[C@]4(C)[C@H]3CC[C@]12C
T/C (dose: 31.25 mg/kg/injection, schedule: Q01DX Z (sc), vehicle: steriod suspending solution): 92 % of control
T/C (dose: 62.5 mg/kg/injection, schedule: Q01DX Z (sc), vehicle: steriod suspending solution): 111 % of control
T/C (dose: 125.0 mg/kg/injection, schedule: Q01DX Z (sc), vehicle: steriod suspending solution): 107 % of control and 116 % of control
T/C (dose: 250.0 mg/kg/injection, schedule: Q01DX Z (sc), vehicle: steriod suspending solution): 107 % of control
T/C (dose: 500.0 mg/kg/injection, schedule: Q01DX Z (sc), vehicle: steriod suspending solution): 95 % of control
T/C (dose: 2000.0 mg/kg/injection, schedule: Q01DX Z (sc), vehicle: steriod suspending solution): 122 % of control

CC(=O)Nc1ccc2nc3ccc(NC(C)=O)cc3[n+](-c3ccccc3)c2c1
T/C (dose: 12.5 mg/kg/injection, schedule: Q01DX Z (ip), vehicle: carboxymethylcellulose (CMC)): 103 % of control
T/C [4]: 109 % of control
T/C [5]: 111 % of control

O=CCC(O)C(O)C(O)CO (centres undefined)
T/C (dose: 31.25 mg/kg/injection, schedule: Q01DX Z (ip), vehicle: carboxymethylcellulose (CMC)): 95 % of control
T/C (dose: 62.5 mg/kg/injection, schedule: Q01DX Z (ip), vehicle: carboxymethylcellulose (CMC)): 88 % of control
T/C (dose: 125.0 mg/kg/injection, schedule: Q01DX Z (ip), vehicle: carboxymethylcellulose (CMC)): 88 % of control
T/C (dose: 250.0 mg/kg/injection, schedule: Q01DX Z (ip), vehicle: carboxymethylcellulose (CMC)): 97 % of control

N#Cc1cn(C2OC(CO)C(O)C2O)c2ncnc(N)c12 (centres undefined)
T/C (dose: 0.03 mg/kg/injection, schedule: Q01DX Z (ip), vehicle: carboxymethylcellulose (CMC)): 97 % of control
T/C (dose: 0.06 mg/kg/injection, schedule: Q01DX Z (ip), vehicle: carboxymethylcellulose (CMC)): 103 % of control
T/C (dose: 0.12 mg/kg/injection, schedule: Q01DX Z (ip), vehicle: carboxymethylcellulose (CMC)): 103 % of control
T/C (dose: 0.25 mg/kg/injection, schedule: Q01DX Z (ip), vehicle: carboxymethylcellulose (CMC)): 88 % of control
T/C (dose: 0.5 mg/kg/injection, schedule: Q01DX Z (ip), vehicle: carboxymethylcellulose (CMC)): 94 % of control

Cn1cnc([N+](=O)[O-])c1Sc1ncnc2nc[nH]c12
T/C [4]: 165 % of control
T/C [5]: 150 % of control
T/C (dose: 100.0 mg/kg/injection, schedule: Q01DX Z (ip), vehicle: carboxymethylcellulose (CMC)): 104 % of control

NC(=O)N(CCCl)N=O
T/C (dose: 1.0 mg/kg/injection, schedule: Q01DX Z (ip), vehicle: carboxymethylcellulose (CMC)): 97 % of control
T/C (dose: 4.0 mg/kg/injection, schedule: Q01DX Z (ip), vehicle: carboxymethylcellulose (CMC)): 95 % of control
T/C (dose: 8.0 mg/kg/injection, schedule: Q01DX Z (ip), vehicle: carboxymethylcellulose (CMC)): 106 % of control
T/C (dose: 16.0 mg/kg/injection, schedule: Q01DX Z (ip), vehicle: carboxymethylcellulose (CMC)): 108 % of control
